Data set [1] can be described thus: Preformulation studies: solubility in solvents. The note with it: for Soluble in solvent ET-Acetate: solvent ethyl acetate. Type of data set: physicochemical. The protocol: Both the drug and conformer were soluble in ethyl acetate. Ethyl acetate was used to prepare pure MA-SAC cocrystals using slow solvent evaporation. Briefly, 1:1 molar ratio of MA and SAC were mixed using a mortar and pestle. This blend was dissolved in ethyl acetate at 50° C. in a glass beaker using a magnetic stirrer-hotplate. Once the physical mixture was dissolved, the solvent was placed on an ice bath to induce nucleation of the cocrystals, the beaker was then placed in fume hood until all the solvent was evaporated. After the solvent was evaporated, the crystals were placed in an oven at 60° C. to remove any residual solvent. The resultant crystals were tested for modulated differential scanning calorimetry. A clear phase separation was observed where crystals with two different habits were developed. Samples for each phase were collected and exposed to thermal analysis.

Data set [2] is described as follows: HPLC with mass spectrophotometer of hot melt extruded mefenamic acid (degradant identification). Type of data set: physicochemical.
Data set [3] in a line: Preformulation studies with Kollidon VA64 (decomposition of mefenamic acid). Type of data set: physicochemical. The note with it: presence of Kollidon VA64.
For data set [4] the following is noted: cited from earlier work.
For data set [5] the following is noted: cited from earlier work. The source holds these as a separate data set.

In the case of `Cc1cccc(Nc2ccccc2C(=O)O)c1C` [Mefenamic acid], in data set [1], the “Soluble in solvent ACN” value is recorded as “No”, the “Soluble in solvent Et—OH” value is “Yes”, the “Soluble in solvent Me—OH” value was “No” and the “Soluble in solvent ET-Acetate” value was “Yes”. Also, in data set [2] (continuous, solvent-free, polymer assisted hot melt extrusion), the “degradation or decarboxylation in the extruded samples” value is recorded as “no degradation or decarboxylation”. In data set [2] (processed with saccharin by HME at 200° C., 180° C., 170° C. and 160° C., no polymer carrier), the “degradation on hot melt extrusion processing (mass spectroscopy)” value is reported as “decarboxylation”. Besides, the “effect of Kollidon VA64 on decomposition of mefenamic acid” value in data set [3] is listed as “can delay the decomposition”.

In the case of `O=C1NS(=O)(=O)c2ccccc21` [Saccharin], in data set [1], the “Soluble in solvent ACN” value is listed as “Yes”, the “Soluble in solvent Et—OH” value was “No”, the “Soluble in solvent Me—OH” value was “Yes” and the “Soluble in solvent ET-Acetate” value is given as “Yes”. Further, in data set [4], the “Log P” value is recorded as 0.91. Also, in data set [5], the pKa is given as 1.31.

As a reminder, the Log P is a log measure of how a compound divides between an organic and an aqueous phase. A word on the pKa: it is the pH at which an ionisable group is half protonated.

The values are drawn from US20230338315A1, “METHOD OF PRODUCING PHARMACEUTICAL COCRYSTALS FOR ADDITIVE MANUFACTURING” (BOARD OF REGENTS, THE UNIVERSITY OF TEXAS SYSTEM, priority 2020, published 2023).
